Test [1] deals with T1, Protein deacetylase HDAC6 (Homo sapiens, UniProt Q9UBN7).
T1 sequence (Q9UBN7 whole entry): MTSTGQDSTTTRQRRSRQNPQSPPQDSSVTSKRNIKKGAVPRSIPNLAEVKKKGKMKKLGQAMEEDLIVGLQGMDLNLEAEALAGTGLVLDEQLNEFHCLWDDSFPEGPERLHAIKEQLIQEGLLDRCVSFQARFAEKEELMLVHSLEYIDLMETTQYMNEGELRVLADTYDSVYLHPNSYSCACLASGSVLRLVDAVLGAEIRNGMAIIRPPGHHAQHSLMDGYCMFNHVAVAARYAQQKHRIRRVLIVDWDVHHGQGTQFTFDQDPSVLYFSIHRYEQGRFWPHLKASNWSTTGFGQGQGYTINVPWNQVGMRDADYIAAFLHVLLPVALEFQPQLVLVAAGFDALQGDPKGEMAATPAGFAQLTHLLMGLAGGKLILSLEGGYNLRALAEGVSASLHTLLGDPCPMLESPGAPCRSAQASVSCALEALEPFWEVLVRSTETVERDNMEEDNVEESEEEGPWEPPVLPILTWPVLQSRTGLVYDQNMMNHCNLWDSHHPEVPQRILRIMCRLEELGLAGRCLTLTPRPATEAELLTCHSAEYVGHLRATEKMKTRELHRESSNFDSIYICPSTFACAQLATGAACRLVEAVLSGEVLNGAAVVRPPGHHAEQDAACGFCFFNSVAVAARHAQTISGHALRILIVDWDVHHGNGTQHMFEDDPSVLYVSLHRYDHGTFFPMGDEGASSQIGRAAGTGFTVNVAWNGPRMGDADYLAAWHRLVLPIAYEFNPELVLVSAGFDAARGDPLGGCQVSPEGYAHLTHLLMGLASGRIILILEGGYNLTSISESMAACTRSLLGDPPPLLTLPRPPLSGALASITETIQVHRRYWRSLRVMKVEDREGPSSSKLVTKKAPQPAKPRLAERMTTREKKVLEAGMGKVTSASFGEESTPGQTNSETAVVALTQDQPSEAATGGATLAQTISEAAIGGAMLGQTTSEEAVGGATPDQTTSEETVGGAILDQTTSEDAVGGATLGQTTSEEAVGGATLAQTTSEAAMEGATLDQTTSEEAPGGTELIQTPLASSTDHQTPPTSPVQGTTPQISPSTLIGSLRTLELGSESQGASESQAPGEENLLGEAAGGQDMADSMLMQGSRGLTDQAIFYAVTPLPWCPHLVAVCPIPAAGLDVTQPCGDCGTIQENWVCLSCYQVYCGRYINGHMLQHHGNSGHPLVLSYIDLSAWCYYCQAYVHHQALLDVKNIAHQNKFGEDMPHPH
Nature of the test: Inhibition of human HDAC6 using fluorogenic HDAC substrate.

In test [2] the target is Histone deacetylase 2 (Homo sapiens, UniProt Q92769). Nature of the test: Inhibition of human HDAC2 using fluorogenic HDAC substrate.
In test [3] the target is T2, Histone deacetylase 11 (Homo sapiens, UniProt Q96DB2).
T2 sequence (Q96DB2 whole entry): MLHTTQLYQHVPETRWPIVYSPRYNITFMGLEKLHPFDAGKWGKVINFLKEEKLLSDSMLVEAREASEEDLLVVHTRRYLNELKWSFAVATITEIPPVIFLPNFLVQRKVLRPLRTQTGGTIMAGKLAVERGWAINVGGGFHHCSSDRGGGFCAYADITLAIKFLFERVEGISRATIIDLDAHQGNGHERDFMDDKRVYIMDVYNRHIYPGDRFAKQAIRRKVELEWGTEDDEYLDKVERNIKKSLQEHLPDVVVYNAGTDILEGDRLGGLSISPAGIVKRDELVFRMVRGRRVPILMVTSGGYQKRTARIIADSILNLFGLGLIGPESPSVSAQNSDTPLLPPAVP
Put plainly: Inhibition of human HDAC11 using fluorogenic HDAC substrate.

For test [4], the target named is Histone deacetylase 4 (Homo sapiens, UniProt P56524). Nature of the test: Inhibition of human HDAC4 using fluorogenic HDAC substrate.
Test [5] concerns the target Histone deacetylase 9 (Homo sapiens, UniProt Q9UKV0). Nature of the test: Inhibition of human HDAC9 using fluorogenic HDAC substrate.
Test [6] concerns the target T3, Histone deacetylase 8 (Homo sapiens, UniProt Q9BY41).
T3 sequence (Q9BY41 whole entry): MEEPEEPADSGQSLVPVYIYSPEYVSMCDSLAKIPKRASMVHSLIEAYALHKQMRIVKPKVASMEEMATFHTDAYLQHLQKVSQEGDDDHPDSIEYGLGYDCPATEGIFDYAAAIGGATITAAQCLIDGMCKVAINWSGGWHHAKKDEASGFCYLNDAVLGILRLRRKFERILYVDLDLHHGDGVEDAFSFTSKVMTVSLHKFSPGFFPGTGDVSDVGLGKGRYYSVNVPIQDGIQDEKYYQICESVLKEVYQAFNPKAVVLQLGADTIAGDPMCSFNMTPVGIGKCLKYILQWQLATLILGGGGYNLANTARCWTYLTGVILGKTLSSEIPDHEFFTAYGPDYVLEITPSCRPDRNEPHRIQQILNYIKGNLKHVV
Put plainly: Inhibition of human HDAC8 using fluorogenic HDAC substrate.

Test [7] concerns the target T4, Histone deacetylase 1 (Homo sapiens, UniProt Q13547). Put plainly: Inhibition of human HDAC1 using fluorogenic HDAC substrate.
Test [8] addresses T5, Polyamine deacetylase HDAC10 (Homo sapiens, UniProt Q969S8).
T5 sequence (Q969S8 whole entry): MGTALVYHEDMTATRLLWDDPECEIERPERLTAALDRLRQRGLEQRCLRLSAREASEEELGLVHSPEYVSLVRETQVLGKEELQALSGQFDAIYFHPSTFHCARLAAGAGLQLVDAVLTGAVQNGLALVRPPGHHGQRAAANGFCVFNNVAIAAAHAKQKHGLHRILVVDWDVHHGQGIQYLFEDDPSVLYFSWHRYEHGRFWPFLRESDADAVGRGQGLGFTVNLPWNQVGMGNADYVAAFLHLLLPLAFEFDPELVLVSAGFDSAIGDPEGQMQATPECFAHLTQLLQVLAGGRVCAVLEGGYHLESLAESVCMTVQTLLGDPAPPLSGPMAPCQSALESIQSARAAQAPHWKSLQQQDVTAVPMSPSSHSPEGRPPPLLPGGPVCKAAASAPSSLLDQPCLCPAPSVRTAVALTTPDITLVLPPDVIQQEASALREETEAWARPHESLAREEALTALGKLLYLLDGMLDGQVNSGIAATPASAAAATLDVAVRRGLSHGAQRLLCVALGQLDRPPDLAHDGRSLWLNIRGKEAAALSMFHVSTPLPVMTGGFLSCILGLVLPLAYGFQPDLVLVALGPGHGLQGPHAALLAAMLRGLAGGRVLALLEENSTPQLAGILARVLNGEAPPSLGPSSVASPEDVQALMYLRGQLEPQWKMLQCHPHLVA
Put plainly: Inhibition of human HDAC10 using fluorogenic HDAC substrate.

Test [9] concerns the target Histone deacetylase 5 (Homo sapiens, UniProt Q9UQL6). Nature of the test: Inhibition of human HDAC5 using fluorogenic HDAC substrate.
The target in test [10] is Histone deacetylase 3 (Homo sapiens, UniProt O15379). Put plainly: Inhibition of human HDAC3 using fluorogenic HDAC substrate.
In test [11] the target is T4, Histone deacetylase 1. Nature of the test: Inhibition of HDAC1 (unknown origin) using Ac-peptide as substrate preincubated for 15 mins followed by substrate addition and measured after 60 mins by fluorescence assay.
Test [12] deals with T1, Protein deacetylase HDAC6. Nature of the test: Inhibition of recombinant full-length human HDAC6 expressed in baculovirus expression system using FAM-RHKK(Ac)-H2 as substrate measured by electrophoretic mobility shift assay. In general terms: In EMSA bound probe runs differently from free probe, usually more slowly.
Test [13] deals with T4, Histone deacetylase 1. Nature of the test: Inhibition of GST-tagged HDAC1 (unknown origin) expressed in insect cells using poly (Glu, Tyr) 4:1 as substrate measured after 15 mins in presence of [gamma-33P]ATP by Topcount method.

Molecules are shown by their SMILES.

Sequence of Histone deacetylase 9 (Q9UKV0 whole entry): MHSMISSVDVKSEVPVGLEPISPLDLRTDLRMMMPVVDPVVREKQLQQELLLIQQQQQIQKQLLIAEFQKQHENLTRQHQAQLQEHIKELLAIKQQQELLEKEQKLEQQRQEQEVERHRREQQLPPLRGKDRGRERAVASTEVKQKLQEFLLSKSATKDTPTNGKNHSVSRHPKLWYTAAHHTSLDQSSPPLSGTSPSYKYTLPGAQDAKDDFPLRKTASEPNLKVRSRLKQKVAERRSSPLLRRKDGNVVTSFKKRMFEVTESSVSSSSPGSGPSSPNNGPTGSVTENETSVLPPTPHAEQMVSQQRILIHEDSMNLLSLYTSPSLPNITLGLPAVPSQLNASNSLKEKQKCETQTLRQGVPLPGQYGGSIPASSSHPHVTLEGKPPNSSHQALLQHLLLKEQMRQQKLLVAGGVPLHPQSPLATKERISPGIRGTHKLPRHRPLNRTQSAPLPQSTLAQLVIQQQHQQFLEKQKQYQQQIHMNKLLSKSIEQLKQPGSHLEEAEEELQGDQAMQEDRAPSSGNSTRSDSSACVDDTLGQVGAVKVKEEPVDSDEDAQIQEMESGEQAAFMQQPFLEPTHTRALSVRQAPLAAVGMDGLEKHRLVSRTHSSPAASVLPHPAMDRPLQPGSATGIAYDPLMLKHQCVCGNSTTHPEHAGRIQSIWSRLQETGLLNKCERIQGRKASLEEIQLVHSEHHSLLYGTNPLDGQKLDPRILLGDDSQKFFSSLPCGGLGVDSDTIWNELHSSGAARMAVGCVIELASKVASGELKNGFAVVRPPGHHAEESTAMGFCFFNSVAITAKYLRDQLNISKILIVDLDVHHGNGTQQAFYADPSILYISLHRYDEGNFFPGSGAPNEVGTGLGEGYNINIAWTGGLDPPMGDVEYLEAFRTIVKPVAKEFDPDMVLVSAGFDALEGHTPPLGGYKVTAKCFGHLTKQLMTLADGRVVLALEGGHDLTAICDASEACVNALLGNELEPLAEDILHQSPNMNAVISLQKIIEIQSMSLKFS
Sequence of Histone deacetylase 4 (P56524 whole entry): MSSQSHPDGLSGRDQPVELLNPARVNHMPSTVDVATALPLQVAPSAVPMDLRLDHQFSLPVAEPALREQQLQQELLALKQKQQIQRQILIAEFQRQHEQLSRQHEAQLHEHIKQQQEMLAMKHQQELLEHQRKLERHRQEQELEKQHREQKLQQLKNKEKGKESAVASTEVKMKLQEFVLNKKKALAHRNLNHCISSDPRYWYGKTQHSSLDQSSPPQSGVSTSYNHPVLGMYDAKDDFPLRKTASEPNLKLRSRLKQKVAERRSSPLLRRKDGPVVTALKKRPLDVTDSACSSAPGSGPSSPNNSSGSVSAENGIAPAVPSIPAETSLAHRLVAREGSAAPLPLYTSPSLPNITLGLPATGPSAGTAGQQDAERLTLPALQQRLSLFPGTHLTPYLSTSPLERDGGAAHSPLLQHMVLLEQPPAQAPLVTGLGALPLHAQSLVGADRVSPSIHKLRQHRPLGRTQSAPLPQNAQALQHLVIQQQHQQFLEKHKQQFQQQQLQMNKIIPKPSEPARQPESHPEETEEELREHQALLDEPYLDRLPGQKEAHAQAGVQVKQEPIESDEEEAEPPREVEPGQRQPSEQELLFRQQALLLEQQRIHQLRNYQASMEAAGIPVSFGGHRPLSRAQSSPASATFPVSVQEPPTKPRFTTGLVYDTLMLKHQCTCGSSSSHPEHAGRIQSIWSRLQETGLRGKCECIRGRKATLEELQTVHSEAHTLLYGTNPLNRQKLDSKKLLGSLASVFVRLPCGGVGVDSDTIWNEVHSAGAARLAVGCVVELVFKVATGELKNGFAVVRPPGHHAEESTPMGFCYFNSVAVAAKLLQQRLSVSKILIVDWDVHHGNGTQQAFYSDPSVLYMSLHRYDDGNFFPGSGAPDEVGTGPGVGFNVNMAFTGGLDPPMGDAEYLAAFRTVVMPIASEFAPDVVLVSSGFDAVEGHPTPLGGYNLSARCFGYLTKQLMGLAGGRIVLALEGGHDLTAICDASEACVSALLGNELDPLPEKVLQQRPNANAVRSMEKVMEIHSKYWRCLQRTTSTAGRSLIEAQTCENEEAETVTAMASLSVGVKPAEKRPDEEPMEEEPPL
T4 sequence (Q13547 whole entry): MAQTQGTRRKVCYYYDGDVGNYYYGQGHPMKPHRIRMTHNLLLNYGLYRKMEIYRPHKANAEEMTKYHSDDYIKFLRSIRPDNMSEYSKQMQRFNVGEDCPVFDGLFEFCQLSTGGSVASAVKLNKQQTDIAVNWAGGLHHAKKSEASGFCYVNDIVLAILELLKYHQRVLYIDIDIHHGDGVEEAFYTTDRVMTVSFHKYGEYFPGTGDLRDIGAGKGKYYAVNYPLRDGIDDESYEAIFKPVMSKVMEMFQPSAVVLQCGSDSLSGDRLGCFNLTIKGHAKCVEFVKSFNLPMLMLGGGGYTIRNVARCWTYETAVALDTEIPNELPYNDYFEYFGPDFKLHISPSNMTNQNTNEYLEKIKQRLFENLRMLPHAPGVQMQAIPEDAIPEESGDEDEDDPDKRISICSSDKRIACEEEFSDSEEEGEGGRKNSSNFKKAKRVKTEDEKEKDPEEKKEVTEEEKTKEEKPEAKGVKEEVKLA
Sequence of Histone deacetylase 5 (Q9UQL6 whole entry): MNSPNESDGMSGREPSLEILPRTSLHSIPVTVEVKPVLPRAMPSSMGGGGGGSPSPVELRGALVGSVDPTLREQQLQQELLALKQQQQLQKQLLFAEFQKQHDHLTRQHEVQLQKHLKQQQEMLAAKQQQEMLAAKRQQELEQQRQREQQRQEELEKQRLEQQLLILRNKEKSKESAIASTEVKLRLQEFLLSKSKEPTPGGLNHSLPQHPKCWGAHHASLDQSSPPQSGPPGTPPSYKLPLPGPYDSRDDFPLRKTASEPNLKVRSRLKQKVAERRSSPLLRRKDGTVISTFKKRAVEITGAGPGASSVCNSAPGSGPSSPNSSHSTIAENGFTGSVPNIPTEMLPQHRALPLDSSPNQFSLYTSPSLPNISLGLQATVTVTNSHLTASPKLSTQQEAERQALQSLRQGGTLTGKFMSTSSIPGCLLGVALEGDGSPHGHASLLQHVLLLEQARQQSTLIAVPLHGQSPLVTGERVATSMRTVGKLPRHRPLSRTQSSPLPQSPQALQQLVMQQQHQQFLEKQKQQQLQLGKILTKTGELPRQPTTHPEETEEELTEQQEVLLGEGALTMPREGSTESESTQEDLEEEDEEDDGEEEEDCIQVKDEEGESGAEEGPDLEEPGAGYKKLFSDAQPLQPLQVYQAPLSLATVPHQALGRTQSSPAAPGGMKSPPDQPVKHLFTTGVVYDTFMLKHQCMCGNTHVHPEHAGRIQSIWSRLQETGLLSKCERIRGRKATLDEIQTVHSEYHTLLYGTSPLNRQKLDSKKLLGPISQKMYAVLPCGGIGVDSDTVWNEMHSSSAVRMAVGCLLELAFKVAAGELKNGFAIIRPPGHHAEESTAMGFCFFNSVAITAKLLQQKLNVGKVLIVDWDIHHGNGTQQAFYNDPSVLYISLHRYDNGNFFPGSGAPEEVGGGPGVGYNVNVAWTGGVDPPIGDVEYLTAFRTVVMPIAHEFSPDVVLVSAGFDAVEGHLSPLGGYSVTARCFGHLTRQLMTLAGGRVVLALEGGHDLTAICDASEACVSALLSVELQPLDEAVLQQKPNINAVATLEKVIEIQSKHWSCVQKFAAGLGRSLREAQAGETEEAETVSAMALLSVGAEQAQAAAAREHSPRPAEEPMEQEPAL
Sequence of Histone deacetylase 3 (O15379 whole entry): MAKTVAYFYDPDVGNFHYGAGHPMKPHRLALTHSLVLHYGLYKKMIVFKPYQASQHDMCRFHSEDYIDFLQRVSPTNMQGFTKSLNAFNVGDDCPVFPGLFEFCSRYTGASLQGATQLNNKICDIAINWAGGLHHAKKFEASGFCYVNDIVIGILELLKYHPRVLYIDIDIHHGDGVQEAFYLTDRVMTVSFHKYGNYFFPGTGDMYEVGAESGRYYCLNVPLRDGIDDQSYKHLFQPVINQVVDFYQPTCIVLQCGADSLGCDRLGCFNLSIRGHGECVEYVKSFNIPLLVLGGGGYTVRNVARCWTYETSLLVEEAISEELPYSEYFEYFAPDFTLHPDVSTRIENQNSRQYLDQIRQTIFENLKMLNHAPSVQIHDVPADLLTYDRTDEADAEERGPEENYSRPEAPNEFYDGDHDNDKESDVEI
Sequence of Histone deacetylase 2 (Q92769 whole entry): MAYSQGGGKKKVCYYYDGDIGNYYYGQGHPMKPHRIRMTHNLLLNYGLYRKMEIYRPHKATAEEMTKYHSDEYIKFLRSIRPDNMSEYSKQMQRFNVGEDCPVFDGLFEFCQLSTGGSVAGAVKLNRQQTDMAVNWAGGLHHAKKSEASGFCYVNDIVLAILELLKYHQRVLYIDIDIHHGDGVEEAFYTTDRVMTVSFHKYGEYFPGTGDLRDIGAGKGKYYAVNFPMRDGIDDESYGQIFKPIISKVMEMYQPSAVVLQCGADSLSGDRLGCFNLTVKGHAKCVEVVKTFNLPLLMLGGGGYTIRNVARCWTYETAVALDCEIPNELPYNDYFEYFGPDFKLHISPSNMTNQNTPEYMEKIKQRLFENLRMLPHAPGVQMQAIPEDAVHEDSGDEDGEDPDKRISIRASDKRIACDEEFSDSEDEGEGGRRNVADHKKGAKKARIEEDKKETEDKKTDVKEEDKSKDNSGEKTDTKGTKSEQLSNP

For the compound `O=C(NO)c1ccc(CN2c3ccccc3C3C2CCS3(=O)=O)cc1` (stereo not drawn), the 50% inhibitory concentration (IC50) is 8.2 nM in test [1]; above 30000 nM in test [2]; 17000 nM in [3]; 600 nM in test [4]; 200 nM in test [5]; 1900 nM in test [6]. The IC50 in [7] amounted to 12000 nM; in test [8], 13000 nM; in test [9], 400 nM.

For `O=C(NO)c1ccc(CN2c3ccccc3C[C@@H]3CCCCC[C@H]32)cc1`, the half-maximal inhibitory concentration (IC50) in test [1] is 33 nM; in test [3], 1200 nM; in [4] it was above 30000 nM; in test [5] it was above 30000 nM; in test [6] it was 6700 nM; in test [10], above 30000 nM. For the same compound, the IC50 in [7], in test [8] and in test [9] was above 30000 nM in each case.

In test [11], `O=C(CCCOc1ccccc1N1C(=O)CSC1c1ccc(Br)s1)NO` (stereo not drawn) displayed an IC50 of 73 nM.

Regarding `O=C(CCCCCCC(=O)Nc1ccccc1N1C(=O)CSC1c1cccc(Br)c1)NO` (stereo not drawn), the IC50 in test [11] was 52 nM.

`O=C(NO)c1ccc(Cn2c3c(c4cc(F)ccc42)C[S+]([O-])CC3)cc1` (stereo not drawn): the IC50 in test [1] was 9.4 nM; in [2], above 30000 nM; in [3] it was 500 nM; in [4], 1200 nM; in test [5], 500 nM; in test [6], 2400 nM. Moreover, the 50% inhibitory concentration (IC50) in test [10] was determined as 24000 nM; in [7], 9400 nM; in test [8] it was 6400 nM; in [9], 1300 nM.

For the compound `COc1ccccc1N1C(=O)CSC1c1cccc(NC(=O)CCC(=O)NO)c1` (stereo not drawn), in test [11], the midpoint of inhibition, the IC50, lay at 350 nM.

Consider `COc1ccc(CN2CCC3(CCc4ccc(C(=O)NO)cc4C3)C2=O)cc1` (stereo not drawn), for which, in test [12], the IC50 is at most 100 nM.

On to `O=C(CCCCCCOc1ccccc1N1C(=O)CSC1c1cccc(Br)c1)NO` (stereo not drawn), for which half-maximal inhibition in test [11] (IC50) was put at 50 nM.

`CC(C)c1[nH]c2ccccc2c1C1CCCN(Cc2ccc(/C=C/C(=O)NO)cc2)C1` (stereo not drawn): in [13], the IC50 is 6 nM.

In turn, `O=C(CCCOc1ccccc1N1C(=O)CSC1c1cccc(Br)c1)NO` (stereo not drawn) displayed an IC50 in test [11] of 1860 nM.

Regarding `Cc1nn2ccccc2c1CCN1CCCC1c1ccc(/C=C/C(=O)NO)cc1` (stereo not drawn), the IC50 in [13] amounted to 0.6 nM.

`Cc1[nH]c2ccccc2c1C1CCCN(Cc2ccc(/C=C/C(=O)NO)cc2)C1` (stereo not drawn): in [13], the IC50 is 6 nM.

Regarding `O=C(CCCCOc1ccccc1N1C(=O)CSC1c1cccc(Br)c1)NO` (stereo not drawn), 530 nM corresponded to half-maximal inhibition in [11] (IC50).

`O=C(/C=C/c1ccc(C2CCCN2CCc2c(-c3cccnc3)nn3ccccc23)cc1)NO` (stereo not drawn): in [13], the half-inhibitory concentration (IC50) was determined as 1 nM.

Regarding `O=C(NO)c1ccc(Cn2c3c(c4cc(F)ccc42)CSCC3)cc1`, the IC50 was determined as 800 nM in test [5], 23000 nM in test [10], 21000 nM in [8] and 1800 nM in [9].

In general, IC50 refers to the point on the concentration scale where inhibition reaches its midpoint.

The values are drawn from ChEMBL document CHEMBL4422610, “HDAC as onco target: Reviewing the synthetic approaches with SAR study of their inhibitors” (Eur J Med Chem, 2018).
